Read-outs that look alike come from different tables or passages of the source.
Key:
[1] = system: acetylated histone H-4 in T24 human bladder cancer cells; assay: Histone H4 acetylation in whole cells by immunoblots; type: cell-based; details: 16 h
In short: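 T24 cells were treated with HDAC inhibitors for 16 h; […] total histone protein was resolved by SDS/PAGE and immunoblotted with polyclonal anti-acetylated H4 antibody. ECL detection, with signal quantified by densitometry.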

[2] = target: T1, cloned recombinant human HDAC-1 (Homo sapiens, UniProt Q13547); assay: Human HDAC-1 enzyme inhibition, Assay 1 ([3H]-acetylated histone substrate, scintillation counting); type: biochemical
T1 construct: made in house; host or cells: Baculovirus insect cell expression system
T1 sequence (Q13547 whole entry): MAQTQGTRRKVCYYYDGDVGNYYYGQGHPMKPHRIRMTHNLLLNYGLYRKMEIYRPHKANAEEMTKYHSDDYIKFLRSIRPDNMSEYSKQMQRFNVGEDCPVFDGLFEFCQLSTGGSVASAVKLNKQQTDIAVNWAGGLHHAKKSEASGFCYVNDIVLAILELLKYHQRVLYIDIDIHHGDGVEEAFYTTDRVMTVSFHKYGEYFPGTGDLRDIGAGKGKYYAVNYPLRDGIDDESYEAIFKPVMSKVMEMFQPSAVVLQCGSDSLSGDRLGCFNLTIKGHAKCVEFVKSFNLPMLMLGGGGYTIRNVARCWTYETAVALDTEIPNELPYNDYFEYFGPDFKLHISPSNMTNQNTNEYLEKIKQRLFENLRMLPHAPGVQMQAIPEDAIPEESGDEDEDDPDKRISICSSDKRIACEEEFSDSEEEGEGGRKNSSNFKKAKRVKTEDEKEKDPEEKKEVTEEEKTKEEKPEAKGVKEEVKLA
In short: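 Recombinant human HDAC-1 from baculovirus-infected insect cells, preincubated with compound 30 min at 4° C. before reaction. Released [3H]-acetic acid extracted with ethyl acetate and counted by scintillation. IC50 taken from dose-response curves as concentration giving half-maximal inhibition.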

[3] = system: HCT116 cells; assay: MTT assay; type: cell-based; details: Homo sapiens, HCT116 cells, 72 hours
In short: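 Cells plated one day before dosing, then exposed to compound 72 h at 37 °C, 5% CO2. MTT at 0.5 mg/ml final for 4 h, solubilized in DMF/SDS buffer pH 4.7; OD converted to cell number from a standard growth curve.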

[4] = T-24, Table 5F, read-out: H4 Ac (T24) EC50
[5] = Table 5F, read-out: Human HDAC-1 IC50
[6] = T-24, Table 5a, read-out: H4Ac (T24) EC50
[7] = Table 5a, read-out: Human HDAC-1 IC50
[8] = T-24, Table 5d, read-out: H4Ac(T24) EC50
[9] = Table 5d, read-out: HDAC-1 IC50

| Compound | EC50 [1, 4] [µM] | IC50 [2, 5] [µM] | IC50 ([3]; HCT-116, 72 h, Table 5F) [µM] | further results |
| --- | --- | --- | --- | --- |
| COc1ccc(N(Cc2ccc(C(=O)Nc3ccccc3N)cc2)C(=O)Nc2ccccc2)cc1OC [Cpd 373, N-(2-Amino-phenyl)-4-[1-(3,4-dimethoxy-phenyl)-3-phenyl-ureidomethyl]-benzamide] | 1 | 4 | 0.4 | – |
| Nc1ccccc1NC(=O)c1ccc(-c2ccc(C(=O)Nc3ccccc3N)cc2)cc1 [Cpd 375, Biphenyl-4,4′-dicarboxylic acid bis-[(2-amino-phenyl)-amide]] | 25 | 3 | 4 | – |
| COc1ccc(Nc2ccnc(NCc3ccc(C(=O)Nc4ccccc4N)cc3)n2)cc1OC [Cpd 442, N-(2-Amino-phenyl)-4-{[4-(3,4-dimethoxy-phenylamino)-pyrimidin-2-ylamino]-methyl}-benzamide] | 1 | 17 | 0.4 | – |
| COc1cc(CNc2ccc3sc(C(=O)Nc4ccccc4N)cc3c2)cc(OC)c1OC [compound 590, 5-(3,4,5-Trimethoxy-benzylamino)-benzo[b]thiophene-2-carboxylic acid (2-amino-phenyl)-amide] | 3 | 2 | 2 | – |
| Nc1ccccc1NC(=O)c1ccc(CNc2nc3cc(Br)ccc3s2)cc1 [Cpd 322, N-(2-Amino-phenyl)-4-[(5-bromo-benzothiazol-2-ylamino)-methyl]-benzamide] | 2 | 0.7 | 0.4 | – |
| Nc1nc(NCc2ccc(/C=C/C(=O)Nc3ccccc3N)cc2)nc(NC2Cc3ccccc3C2)n1 [Cpd 83] | – | – | – | EC50 [1, 6]: 5 µM; IC50 [2, 7]: 3 µM; IC50 ([3]; HCT-116, 72 h, Table 5a): 5 µM |
| COc1cc(NC(C)c2ccc(/C=C/C(=O)Nc3ccccc3N)cc2)cc(OC)c1OC (stereo not drawn) [Cpd 518, N-(2-Amino-phenyl)-3-{4-[1-(3,4,5-trimethoxy-phenylamino)-ethyl]-phenyl}-acrylamide] | – | – | – | EC50 [1, 8]: 5 µM; IC50 [2, 9]: 4 µM; IC50 ([3]; HCT-116, Table 5d): 2 µM |
| Nc1ccccc1NC(=O)c1ccc(CNc2nc(Cl)cc(Cl)n2)cc1 [Cpd 419, N-(2-Amino-phenyl)-4-[(4,6-dichloro-pyrimidin-2-ylamino)-methyl]-benzamide] | 5 | 2 | 1 | – |
| COc1ccc(NCc2ccc(C(=O)Nc3ccccc3N)cc2)cn1 [Cpd 421] | 1 | 4 | 0.6 | – |
| Nc1ccccc1NC(=O)c1ccc(Cc2noc(-c3cccnc3)n2)cc1 [Cpd 357, N-(2-Amino-phenyl)-4-(5-pyridin-3-yl-[1,2,4]oxadiazol-3-ylmethyl)-benzamide] | 2 | 4 | 0.4 | – |
| COc1ccc2[nH]c(SCc3ccc(C(=O)Nc4cscc4N)cc3)nc2c1 [Cpd 575, N-(4-Amino-thiophen-3-yl)-4-(5-methoxy-1H-benzoimidazol-2-ylsulfanyl-methyl)-benzamide] | 1 | 2 | 0.2 | – |
| Nc1ccccc1NC(=O)c1ccc(CSc2ncc[nH]2)cc1 [Cpd 327, N-(2-Amino-phenyl)-4-(1H-imidazol-2-ylsulfanylmethyl)-benzamide] | 3 | 2 | 5 | – |
| COc1nc(NCc2ccc(C(=O)Nc3ccccc3N)cc2)nc(OC)n1 [Cpd 212] | – | – | – | EC50 ([1]; T-24, Table 5b, read-out: H4Ac (T24) EC50): 1 µM; IC50 ([2]; Table 5b, read-out: Human HDAC-1 IC50): 3 µM; IC50 ([3]; HCT-116, 72 h, Table 5b): 1 µM |
| Nc1ccccc1NC(=O)c1ccc(CNc2cccc(F)c2)cc1 [Cpd 417, N-(2-Amino-phenyl)-4-[(3-fluoro-phenylamino)-methyl]-benzamide] | 1 | 3 | 1 | – |
| COc1ccc(NCc2ccc(C(=O)Nc3ccccc3N)cc2)c(C)c1 [Cpd 403, N-(2-Amino-phenyl)-4-[(4-methoxy-2-methyl-phenylamino)-methyl]-benzamide] | 1 | 1 | 0.2 | – |
| Cc1c(Cc2ccc(C(=O)Nc3ccccc3N)cc2)sc(NC(=O)c2ccccc2)c1C#N [Cpd 360, 4-(5-Benzoylamino-4-cyano-3-methyl-thiophen-2-ylmethyl)-N-(2-amino-phenyl)-benzamide] | 1 | 5 | 0.2 | – |
| Nc1nc(NCc2ccccc2)nc(NCc2ccc(C(=O)Nc3ccccc3N)cc2)n1 [Cpd 29, 4-[(4-Amino-6-benzylamino-[1,3,5]triazin-2-ylamino)-methyl]-N-(2-amino-phenyl)-benzamide] | – | – | – | EC50 [1, 6]: 1 µM; IC50 [2, 7]: 2 µM; IC50 ([3]; HCT-116, 72 h, Table 5a): 2 µM |
| Nc1ccccc1NC(=O)/C=C/c1ccc(NCc2cccc(O)c2)nc1 [Cpd 524, N-(2-Amino-phenyl)-3-[6-(3-hydroxy-benzylamino)-pyridin-3-yl]-acrylamide] | – | – | – | EC50 [1, 8]: 3 µM; IC50 [2, 9]: 3 µM; IC50 ([3]; HCT-116, Table 5d): 2 µM |
| Nc1ccccc1NC(=O)/C=C/c1ccc(NC/C=C/c2ccccc2)nc1 [Cpd 112] | – | – | – | EC50 ([1]; T-24, Table 5c, read-out: H4Ac (T24) EC50): 5 µM; IC50 ([2]; Table 5c, read-out: Human HDAC-1 IC50): 2 µM; IC50 ([3]; HCT-116, 72 h, Table 5c): 5 µM |
| Nc1nc(NCCc2ccccc2F)nc(NCc2ccc(C(=O)Nc3ccccc3N)cc2)n1 [Cpd 24, 4-({4-Amino-6-[2-(2-fluoro-phenyl)-ethylamino]-[1,3,5]triazin-2-ylamino)-methyl)-N-(2-amino-phenyl)-benzamide] | – | – | – | EC50 [1, 6]: 1 µM; IC50 [2, 7]: 3 µM; IC50 ([3]; HCT-116, 72 h, Table 5a): 0.6 µM |
| CSc1ccc(NCc2ccc(C(=O)Nc3ccccc3N)cc2)cc1 [Cpd 437] | 1 | 3 | 0.4 | – |
| CC(=O)Nc1sc(Cc2ccc(C(=O)Nc3ccccc3N)cc2)cc1C(N)=O [Cpd 579, 2-Acetylamino-5-[4-(2-amino-phenyl-carbamoyl)-benzyl]-thiophene-3-carboxamide] | 1 | 2 | 0.5 | – |
| CC(=O)c1cc2c(cc1NCc1ccc(C(=O)Nc3ccccc3N)cc1)OCO2 [Cpd 386, 4-[(6-Acetyl-benzo[1,3]dioxol-5-ylamino)-methyl]-N-(2-amino-phenyl)-benzamide] | 1 | 3 | 1 | – |
| CCCCn1cnc2c(NCc3ccc(C(=O)Nc4ccccc4N)cc3)nc(N)nc21 [Cpd 330, 4-[(2-Amino-9-butyl-9H-purin-6-ylamino)-methyl]-N-(2-amino-phenyl)-benzamide] | 1 | 3 | 2 | – |
| COc1ccc(NCc2ccc3oc(C(=O)Nc4ccccc4N)cc3c2)cc1OC [compound 587, 5-[(3,4-Dimethoxy-phenylamino)-methyl]-benzofuran-2-carboxylic acid (2-amino-phenyl)-amide] | 2 | 5 | 0.8 | – |
| Nc1ccccc1NC(=O)c1ccc(NCc2cccc(F)c2)cc1 [Cpd 416, N-(2-Amino-phenyl)-4-(3-fluoro-benzylamino)-benzamide] | 1 | 3 | 0.6 | – |
| Nc1ccccc1NC(=O)c1ccc(Cn2cnc3ccc(Cl)cc3c2=O)cc1 [Cpd 336] | < 1 | 1 | 0.4 | – |
| CN1CCN(c2ccc(NCc3ccc(/C=C/C(=O)Nc4ccccc4N)cc3)cc2C(F)(F)F)CC1 [Cpd 526] | – | – | – | EC50 [1, 8]: 1 µM; IC50 [2, 9]: 2 µM; IC50 ([3]; HCT-116, Table 5d): 0.8 µM |
| CC(=O)Nc1ccc(NCc2ccc(C(=O)Nc3ccccc3N)cc2)cc1 [Cpd 401, 4-[(4-Acetylamino-phenylamino)methyl]-N-(2-amino-phenyl)-benzamide] | 2 | 6 | 0.3 | – |
| Cc1cc(C)nc(NCc2ccc(C(=O)Nc3ccccc3N)cc2)c1 [Cpd 383, N-(2-Amino-phenyl)-4-[(4,6-dimethyl-pyridin-2-ylamino)-methyl]-benzamide] | 2 | 2 | 0.5 | – |
